Reference: patent US7354588B1, “Functional derivatives of ICAM-1 with altered ability to bind LFA-1 or HRV” (Dana Farber Cancer Institute, priority 1987, dated 2008)

Key:
[1] = tested on: human peripheral blood mononuclear cells (responder and irradiated stimulator cells); assay: Mixed lymphocyte reaction (MLR), ^3HT incorporation; type: cell-based; settings: Table 19, R × S, R6-5-D6 8 ng/ml, Dex 50 ng/ml
[2] = tested on: JY cells (LFA-1 dependent aggregation); assay: Qualitative aggregation assay (microtiter plate), PMA-induced JY cell aggregation; type: cell-based, human
Protocol: In order to assess the extent of cellular adhesion, aggregation assays were employed. Cell lines used in such assays were washed two times with RPMI 1640 medium containing 5 mM Hepes buffer (Sigma Chemical Co., St. Louis) and resuspended to a concentration of 2×10^6 cells/ml. Added to flat-bottomed, 96-well microtiter plates (No. 3596; Costar, Cambridge, Mass.) were 50 μl of appropriate monoclonal antibody supernatant or 50 μl of complete medium with or without purified monoclonal antibodies, 50 μl of complete medium containing 200 ng/ml of the phorbol ester phorbol myristate acetate (PMA) and 100 μl of cells at a concentration of 2×10^6 cells/ml in complete medium. This yielded a final concentration of 50 ng/ml PMA and 2×10^5 cells/well. Cells were allowed to settle spontaneously, and the degree of aggregation was scored at various time points. […] In order to obtain a more quantitative estimate of cellular adhesion, reagents and cells were added to 5 ml polystyrene tubes in the same order as above. Tubes were placed in a rack on a gyratory shaker at 37° C. After 1 hour at approximately 200 rpm, 10 μl of the cell suspension was placed in a hemocytometer and the number of free cells was quantitated. Percent aggregation was determined by the following equation: […]
The qualitative aggregation assay described in Example 2 was performed using the Epstein-Barr transformed cell line JY. […]

ICAM-1-LFA-1 adhesion = ICAM-1-LFA-1 adhesion (Homo sapiens, UniProt P05107+P05362+P20701); settings: peptides; cited from earlier work
Sequence of ICAM-1-LFA-1 adhesion (P20701 26-1170, one chain of several): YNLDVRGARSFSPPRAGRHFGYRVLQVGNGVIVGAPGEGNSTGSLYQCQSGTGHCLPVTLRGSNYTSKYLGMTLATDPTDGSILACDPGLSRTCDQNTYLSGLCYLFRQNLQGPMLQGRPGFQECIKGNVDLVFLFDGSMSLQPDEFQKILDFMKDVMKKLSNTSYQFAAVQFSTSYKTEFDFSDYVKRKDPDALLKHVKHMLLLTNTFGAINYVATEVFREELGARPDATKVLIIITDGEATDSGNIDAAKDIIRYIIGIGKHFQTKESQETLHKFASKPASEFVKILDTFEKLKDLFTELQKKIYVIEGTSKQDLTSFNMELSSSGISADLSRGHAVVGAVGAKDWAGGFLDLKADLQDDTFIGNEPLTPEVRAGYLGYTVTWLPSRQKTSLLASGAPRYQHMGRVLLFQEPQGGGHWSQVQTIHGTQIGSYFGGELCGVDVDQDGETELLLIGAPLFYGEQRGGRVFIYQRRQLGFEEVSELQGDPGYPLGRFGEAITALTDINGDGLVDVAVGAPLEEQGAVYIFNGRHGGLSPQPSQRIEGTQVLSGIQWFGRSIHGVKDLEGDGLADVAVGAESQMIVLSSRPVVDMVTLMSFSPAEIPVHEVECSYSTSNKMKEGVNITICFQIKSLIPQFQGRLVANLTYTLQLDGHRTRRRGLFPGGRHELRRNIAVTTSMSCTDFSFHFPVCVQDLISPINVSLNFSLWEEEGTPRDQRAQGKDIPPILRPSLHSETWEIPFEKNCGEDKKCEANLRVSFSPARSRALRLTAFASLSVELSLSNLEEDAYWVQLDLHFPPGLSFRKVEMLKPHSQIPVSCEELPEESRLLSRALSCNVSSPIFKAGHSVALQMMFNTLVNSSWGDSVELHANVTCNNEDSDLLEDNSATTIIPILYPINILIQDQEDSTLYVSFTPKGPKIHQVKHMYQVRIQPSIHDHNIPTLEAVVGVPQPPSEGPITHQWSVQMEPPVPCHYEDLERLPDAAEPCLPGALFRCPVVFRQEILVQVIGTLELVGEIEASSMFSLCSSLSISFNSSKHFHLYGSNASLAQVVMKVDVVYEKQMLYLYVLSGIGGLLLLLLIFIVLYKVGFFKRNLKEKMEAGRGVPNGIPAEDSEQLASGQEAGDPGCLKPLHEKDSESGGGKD
Sequence of ICAM-1-LFA-1 adhesion (P05107 23-769, one chain of several): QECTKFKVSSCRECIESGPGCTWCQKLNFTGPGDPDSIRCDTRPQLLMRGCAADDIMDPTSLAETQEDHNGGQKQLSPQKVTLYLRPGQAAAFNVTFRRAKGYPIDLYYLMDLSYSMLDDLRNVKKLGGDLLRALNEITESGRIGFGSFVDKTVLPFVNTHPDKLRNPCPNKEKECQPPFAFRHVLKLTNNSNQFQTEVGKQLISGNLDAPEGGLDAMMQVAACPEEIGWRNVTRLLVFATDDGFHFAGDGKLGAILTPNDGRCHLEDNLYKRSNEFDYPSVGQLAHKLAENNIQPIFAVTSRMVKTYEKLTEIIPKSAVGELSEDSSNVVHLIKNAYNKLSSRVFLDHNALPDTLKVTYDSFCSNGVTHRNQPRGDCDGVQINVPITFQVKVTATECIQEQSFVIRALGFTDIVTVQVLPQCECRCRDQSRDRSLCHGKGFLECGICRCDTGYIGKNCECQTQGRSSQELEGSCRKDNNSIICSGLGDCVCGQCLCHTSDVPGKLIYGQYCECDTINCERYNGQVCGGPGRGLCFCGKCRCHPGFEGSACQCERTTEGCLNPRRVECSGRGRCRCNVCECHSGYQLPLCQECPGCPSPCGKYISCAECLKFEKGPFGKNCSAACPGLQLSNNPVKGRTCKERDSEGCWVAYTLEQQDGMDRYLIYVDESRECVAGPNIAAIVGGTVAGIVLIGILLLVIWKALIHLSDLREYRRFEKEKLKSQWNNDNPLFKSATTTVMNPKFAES

LFA-1 on SKW-3 cells = molecular target: T1, LFA-1 on SKW-3 cells (Homo sapiens, UniProt P05107+P20701); assay: SKW-3 cell binding to ICAM-1 bound to plastic (solid phase); type: cell-based; settings: purified protein bound to 96-well plates
T1 construct: SKW-3 cells bearing LFA-1 on their surface; endogenous in cells; host or cells: SKW-3 T-lymphoma cells
T1 sequence (P20701 26-1170): as the sequence (P20701 26-1170, one chain of several) above
T1 sequence (P05107 23-769): as the sequence (P05107 23-769, one chain of several) above
Text: The truncated ICAM-1 secreted from transfected cells was purified by immunoaffinity chromatography with an ICAM-1 specific antibody (R6-5-D6) and tested for functional activity in a cell binding assay. […] These preparations of ICAM-1 were allowed to bind to the surfaces of plastic 96-well plates (Nunc), to produce ICAM-1 bound to a solid-phase. After washing out unbound material, approximately 75-80% and 83-88% of SKW-3 cells bearing LFA-1 on their surface bound specifically to the native and to the truncated forms of ICAM-1, respectively.

LFA-1 = molecular target: T2, LFA-1 (Homo sapiens, UniProt P05107+P20701); assay: Adherence of COS cells expressing ICAM-1 or ICAM-1 mutants to plastic-bound purified LFA-1; type: cell-based
T2 construct: endogenous in cells
T2 sequence (P20701 26-1170): as the sequence (P20701 26-1170, one chain of several) above
T2 sequence (P05107 23-769): as the sequence (P05107 23-769, one chain of several) above

HRV14 = assay: Binding of [^35S]-Met labeled HRV14 to COS cells expressing ICAM-1 mutants; type: cell-based, human rhinovirus 14

C[C@@H]1C[C@H]2[C@@H]3CCC4=CC(=O)C=C[C@]4(C)[C@@]3(F)[C@@H](O)C[C@]2(C)[C@@]1(O)C(=O)CO [Dex, Dexamethasone]
inhibition at 0.05 µg/mL ([1]; Homo sapiens, PBMC): 59%
^3HT Incorporation (CPM) ([1]; no inhibitor 34,199): 14,158 CPM

[Mg] [magnesium]
lowest concentration supporting PMA-induced JY cell aggregation ([2]; 1.25 mM calcium ions added to the medium): 0.02 millimolar
lowest concentration supporting PMA-induced JY cell aggregation ([2]; medium free of calcium ions): 0.3 mM

GRGDSP
inhibition of ICAM-1-LFA-1 adhesion (ICAM-1-LFA-1 adhesion): failure

GRGESP
inhibition of ICAM-1-LFA-1 adhesion (ICAM-1-LFA-1 adhesion): failure

B1: Native ICAM-1: native (wild-type) Intercellular Adhesion Molecule-1, purified or expressed in COS cells (protein, UniProt P05362 28-532, looked up)
Intercellular adhesion …: QTSVSPSKVILPRGGSVLVTCSTSCDQPKLLGIETPLPKKELLLPGNNRKVYELSNVQEDSQPMCYSNCPDGQSTAKTFLTVYWTPERVELAPLPSWQPVGKNLTLRCQVEGGAPRANLTVVLLRGEKELKREPAVGEPAEVTTTVLVRRDHHGANFSCRTELDLRPQGLELFENTSAPYQLQTFVLPATPPQLVSPRVLEVDTQGTVVCSLDGLFPVSEAQVHLALGDQRLNPTVTYGNDSFSAKASVSVTAEDEGTQRLTCAVILGNQSQETLQTVTIYSFPAPNVILTKPEVSEGTEVTVKCEAHPRAKVTLNGVPAQPLGPRAQLLLKATPEDNGRSFSCSATLEVAGQLIHKNQTRELRVLYGPRLDERDCPGNWTWPENSQQTPMCQAWGNPLPELKCLKDGTFPLPIGESVTVTRDLEGTYLCRARSTQGEVTRKVTVNVLSPRYEIVIITVVAAAVIMGTAGLSTYLYNRQRKIKKYRLQQAQKGTPMKPNTQATPP
SKW-3 cells bound specifically to plastic-bound ICAM-1 (LFA-1 on SKW-3 cells): 75-80%
Percent of ICAM-1 expressing COS cells that bound to LFA-1, mean (LFA-1): 33%
Percent of ICAM-1 expressing COS cells that bound to LFA-1, range over experiments (LFA-1; mock-transfected 0-1%): 11-63%
% of Cells Expressing ICAM-1 that Bind LFA-1 in the Presence of RR1/1 (LFA-1; transfected Cos cells, purified LFA-1 on plastic): 0%
Percent of [^35S] methionine-labeled HRV-14 which bound to COS cells, mean (HRV14): 21%
Percent of [^35S] methionine-labeled HRV-14 which bound to COS cells, range over experiments (HRV14; mock-transfected 0-4%): 6-43%
